Reference: ChEMBL document CHEMBL5096182, “Aurora kinase inhibitors as potential anticancer agents: Recent advances” (Eur J Med Chem, 2021)
In brackets after ≈: the same amount, converted by molar mass.

Experiments:
HepG2 [1] = test: Antiproliferative activity against human HepG2 cells; type: functional, cell-based
[2] = Inhibition of Aurora B (unknown origin) using Ulight-PLK (Ser137) as substrate incubated for 60 mins by FRET-based Lance Ultra Kinase assay; parameters: species or system Homo sapiens
MCF7 = test: Antiproliferative activity against human MCF7 cells incubated for 72 hrs by alamar blue cell viability assay; type: functional, cell-based; conditions: MCF7, 72 h
MDA-MB-231 = test: Antiproliferative activity against human MDA-MB-231 cells incubated for 72 hrs by alamar blue cell viability assay; type: functional, cell-based; conditions: MDA-MB-231, 72 h
SK-OV-3 = test: Antiproliferative activity against human SK-OV-3 cells incubated for 72 hrs by alamar blue cell viability assay; type: functional, cell-based; conditions: SK-OV-3, 72 h
A-375 = test: Antiproliferative activity against human A-375 cells incubated for 72 hrs by alamar blue cell viability assay; type: functional, cell-based; conditions: A-375, 72 h
A549 [3] = test: Antiproliferative activity against human A549 cells incubated for 72 hrs by alamar blue cell viability assay; type: functional, cell-based; conditions: A549, 72 h
[4] = Oral bioavailability in mouse at 10 mg/kg; type: ADME, organism-based; conditions: in vivo
A549 [5] = test: Antiproliferative activity against human A549 cells incubated for 72 hrs by MTT assay; type: functional, cell-based; conditions: A549, 72 h
Aurora kinase A [6] = molecular target: T1, Aurora kinase A (Homo sapiens, UniProt O14965); test: Inhibition of human Aurora A using LeuArgArgAlaSerLeuGly as substrate
T1 sequence (O14965 whole entry): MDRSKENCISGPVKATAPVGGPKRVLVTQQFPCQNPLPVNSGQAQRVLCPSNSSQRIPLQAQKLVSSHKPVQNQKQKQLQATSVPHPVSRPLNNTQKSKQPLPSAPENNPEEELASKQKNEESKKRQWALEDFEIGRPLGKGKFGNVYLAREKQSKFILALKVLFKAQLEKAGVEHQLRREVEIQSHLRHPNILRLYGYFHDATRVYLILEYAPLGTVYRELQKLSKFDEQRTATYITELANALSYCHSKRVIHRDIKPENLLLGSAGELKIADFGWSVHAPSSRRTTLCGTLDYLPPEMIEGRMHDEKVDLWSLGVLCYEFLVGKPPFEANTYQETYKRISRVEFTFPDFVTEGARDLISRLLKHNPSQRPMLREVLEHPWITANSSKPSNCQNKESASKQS

HCT-116 [7] = test: Anticancer activity against human HCT-116 cells assessed as cell growth inhibition measured after 7 days by crystal violet staining based clonogenic long-term survival assay; type: functional; conditions: HCT-116, 168 h, time 7 day
[8] = molecular target: T2, Aurora kinase A (Homo sapiens) (UniProt O14965); test: Inhibition of Aurora kinase A (unknown origin) using LeuArgArgAlaSerLeuGly as substrate at 10 uM incubated in presence of ATP relative to control
T2 sequence (whole entry): T1 sequence (O14965 whole entry)

HCT-116 [9] = test: Antiproliferative activity against human HCT-116 cells incubated for 48 hrs by SRB assay; type: functional, cell-based; conditions: HCT-116, 48 h
A2780 = test: Antiproliferative activity against human A2780 cells incubated for 48 hrs by SRB assay; type: functional, cell-based; conditions: A2780, 48 h
HepG2 [10] = test: Antiproliferative activity against human HepG2 cells incubated for 48 hrs by SRB assay; type: functional, cell-based; conditions: HepG2, 48 h
Aurora kinase A [11] = molecular target: T1, Aurora kinase A; test: Inhibition of N-terminal GST tagged Aurora A (unknown origin) expressed in recombinant baculovirus-infected Sf9 cells using tetra(LRRWSLG) as substrate preincubated for 15 mins followed by the addition of substrate for 90 mins in the presence of ATP by Kinase-Glo Plus reagent based luminescence assay
HCT-116 [12] = test: Antiproliferative activity against human HCT-116 cells by MTT assay
Aurora kinase A [13] = molecular target: T1, Aurora kinase A; test: Inhibition of Aurora A (unknown origin) using recombinant Lats2-N-ter as substrate incubated in the presence of ATP

Q: Which IC50 (HepG2 [1]) does the source give for COc1cccc2c1C(=O)c1c(O)c3c(c(O)c1C2=O)C[C@@](O)(C(=O)CO)C[C@@H]3O[C@H]1C[C@H](N)[C@H](O)[C@H](C)O1 [DOXORUBICIN] here?
A: Its IC50 is 3.56 µg/mL (≈ 6.55 µM).

Q: Which IC50 [2] does the source give for CN1CCN(c2nc(Nc3ccc(S(N)(=O)=O)cc3)ncc2F)Cc2ccc(F)cc21 here?
A: Its IC50 is 8 nM.

Q: What about the IC50 (MCF7) of the same compound?
A: Its IC50 is 570 nM.

Q: And the IC50 (MDA-MB-231)?
A: Its IC50 is 420 nM.

Q: What about the IC50 (SK-OV-3) of the same compound?
A: Its IC50 is 690 nM.

Q: What about the IC50 (A-375) of the same compound?
A: The IC50 was 3970 nM.

Q: And the IC50 (A549 [3])?
A: The IC50 was 1530 nM.

Q: And the bioavailability [4]?
A: The bioavailability was 73%.

Q: With CC(=O)N1CCN(c2ccc(Nc3ncc(F)c(N4CCN(C)c5cc(F)ccc5C4)n3)cc2)CC1 as the compound, how does the IC50 [2] read?
A: The IC50 was 9 nM.

Q: With Cc1c(-c2cc(-c3cn(-c4ccccc4)nc3-c3nnn(-c4ccc(Br)cc4)c3C)c(C#N)c(N)n2)nnn1-c1ccc(Br)cc1 as the compound, how does the IC50 (HepG2 [1]) read?
A: Its IC50 is 0.64 µg/mL (≈ 0.873 µM).

Q: For O=C(N/N=C/c1coc2ccccc2c1=O)c1ccc(F)cc1, which IC50 (A549 [5]) is on record?
A: The IC50 was 1140 nM.

Q: And the IC50 (Aurora kinase A [6])?
A: The IC50 was 1140 nM.

Q: For CN1CCN(c2ccc(Nc3ncc(F)c(N4CCN(C)c5cc(F)ccc5C4)n3)cc2)CC1, which IC50 [2] is on record?
A: The IC50 was 7 nM.

Q: Which results are given for COc1ccc(-c2cc(-c3ccccc3O)nc(N)n2)c(OC)c1?
A: GI50 (HCT-116 [7]): 1450 nM; inhibition [8]: 95%

Q: Which results are given for NC1=C(C(=O)Nc2ccc(-c3nc4ccccc4[nH]3)cc2)C(c2ccc([N+](=O)[O-])cc2)N2C=CSC2N1 (stereo unspecified)?
A: IC50 (HCT-116 [9]): 1320 nM; IC50 (A2780): 3500 nM; IC50 (HepG2 [10]): 2340 nM

Q: Which results are given for COc1ccccc1C1C(C(=O)Nc2ccc(-c3nc4ccccc4[nH]3)cc2)=C(N)NC2SC=CN21 (stereo unspecified)?
A: IC50 (HCT-116 [9]): 1200 nM; IC50 (A2780): 3100 nM; IC50 (HepG2 [10]): 2110 nM

Q: With COc1cc2ncnc(NCCc3ccc(NC(=O)Nc4ccccc4)cc3)c2cc1OC as the compound, how does the IC50 (Aurora kinase A [11]) read?
A: The IC50 was 25 nM.

Q: And the IC50 (HCT-116 [12])?
A: Its IC50 is 23 nM.

Q: With Cc1c(-c2cc(-c3cn(-c4ccccc4)nc3-c3nnn(-c4cccc([N+](=O)[O-])c4)c3C)c(C#N)c(N)n2)nnn1-c1ccc(Br)cc1 as the compound, how does the IC50 (HepG2 [1]) read?
A: The IC50 was 1.08 µg/mL (≈ 1.54 µM).

Q: For COc1ccc(-c2cc(-c3nnn(-c4ccc(Br)cc4)c3C)nc(N)c2C#N)cc1, which IC50 (HepG2 [1]) is on record?
A: Its IC50 is 2.34 µg/mL (≈ 5.07 µM).

Q: Which IC50 (Aurora kinase A [13]) does the source give for C=CCn1c(C)nc2ccc(Nc3nc(N4CCN(C)CC4)nc4ccccc34)cc21 here?
A: Its IC50 is 35 nM.
